Where a SMILES comes first, the peptide text is derived from it. Bridges are numbered along the chain shown (N, C = ends). [ ]: non-standard residue; d: D form. The star is where a group is joined. Threoninol(2S,3R) = C[C@@H](O)[C@H](CO)N*
Tests used:
[1] = target: C-C chemokine receptor type 5 (Homo sapiens, UniProt P51681); type: cell membranes, HEK293, Membrane; conditions: hek293; note: in other assays of this panel Not Active means under 50% inhibition at 10 µM
[2] = target: T1, Polyunsaturated fatty acid lipoxygenase ALOX15 (Oryctolagus cuniculus, UniProt P12530); test: biochemical; type: tissue-based, Reticulocytes; conditions: reticulocytes;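 note: inhibition of 15-lipoxygenase enzyme activity measured with linoleic acid as the substrate; in other assays of this panel Not Active means under 50% inhibition at 10 µM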
T1 sequence (P12530 whole entry): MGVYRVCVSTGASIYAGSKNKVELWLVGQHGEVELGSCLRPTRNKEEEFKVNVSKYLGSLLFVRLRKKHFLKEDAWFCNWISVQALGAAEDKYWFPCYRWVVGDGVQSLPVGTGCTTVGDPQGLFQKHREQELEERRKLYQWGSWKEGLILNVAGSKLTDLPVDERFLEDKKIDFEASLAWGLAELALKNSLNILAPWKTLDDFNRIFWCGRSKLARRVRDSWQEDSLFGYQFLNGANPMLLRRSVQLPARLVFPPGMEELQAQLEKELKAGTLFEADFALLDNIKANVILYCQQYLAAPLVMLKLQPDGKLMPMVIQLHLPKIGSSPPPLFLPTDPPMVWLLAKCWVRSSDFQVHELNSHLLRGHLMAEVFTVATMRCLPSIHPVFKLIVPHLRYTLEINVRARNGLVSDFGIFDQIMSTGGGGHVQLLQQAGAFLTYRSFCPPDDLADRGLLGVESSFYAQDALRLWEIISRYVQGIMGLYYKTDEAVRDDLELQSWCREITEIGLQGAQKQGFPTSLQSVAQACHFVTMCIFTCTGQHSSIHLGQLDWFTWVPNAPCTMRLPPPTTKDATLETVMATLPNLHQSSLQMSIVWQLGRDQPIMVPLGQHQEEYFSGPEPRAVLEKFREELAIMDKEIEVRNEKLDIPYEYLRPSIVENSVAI

[3] = target: Protein phosphatase 3 catalytic subunit alpha (Homo sapiens, UniProt Q08209); set-up: species or system Escherichia coli;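 note: inhibition of calcineurin (PP2B) enzyme activity, measured with DiFMUP as the substrate; in other assays of this panel Not Active means under 50% inhibition at 10 µM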
[4] = target: Cannabinoid receptor 1 (Homo sapiens, UniProt P21554); type: cell membranes, Chem-1, Membrane; note: in other assays of this panel Not Active means under 50% inhibition at 10 µM
Cannabinoid receptor 1, sequence (P21554 whole entry): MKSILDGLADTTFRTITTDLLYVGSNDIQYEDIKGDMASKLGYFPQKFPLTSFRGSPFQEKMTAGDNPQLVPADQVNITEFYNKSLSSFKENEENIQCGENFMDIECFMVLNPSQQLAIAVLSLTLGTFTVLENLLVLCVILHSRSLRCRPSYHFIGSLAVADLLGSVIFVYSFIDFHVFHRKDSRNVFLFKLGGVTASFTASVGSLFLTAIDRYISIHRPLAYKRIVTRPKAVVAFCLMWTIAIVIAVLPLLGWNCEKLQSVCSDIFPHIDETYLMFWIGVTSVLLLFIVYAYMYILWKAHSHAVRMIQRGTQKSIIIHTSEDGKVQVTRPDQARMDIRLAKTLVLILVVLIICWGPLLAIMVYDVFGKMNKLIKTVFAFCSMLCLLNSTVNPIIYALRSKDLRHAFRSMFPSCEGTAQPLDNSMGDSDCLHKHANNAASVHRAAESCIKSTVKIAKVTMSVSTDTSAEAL

[5] = target: Voltage-gated inwardly rectifying potassium channel KCNH2 (Homo sapiens, UniProt Q12809); conditions: hek293; note: in other assays of this panel Not Active means under 50% inhibition at 10 µM
Voltage-gated inwardly rectifying potassium channel KCNH2, sequence (Q12809 whole entry): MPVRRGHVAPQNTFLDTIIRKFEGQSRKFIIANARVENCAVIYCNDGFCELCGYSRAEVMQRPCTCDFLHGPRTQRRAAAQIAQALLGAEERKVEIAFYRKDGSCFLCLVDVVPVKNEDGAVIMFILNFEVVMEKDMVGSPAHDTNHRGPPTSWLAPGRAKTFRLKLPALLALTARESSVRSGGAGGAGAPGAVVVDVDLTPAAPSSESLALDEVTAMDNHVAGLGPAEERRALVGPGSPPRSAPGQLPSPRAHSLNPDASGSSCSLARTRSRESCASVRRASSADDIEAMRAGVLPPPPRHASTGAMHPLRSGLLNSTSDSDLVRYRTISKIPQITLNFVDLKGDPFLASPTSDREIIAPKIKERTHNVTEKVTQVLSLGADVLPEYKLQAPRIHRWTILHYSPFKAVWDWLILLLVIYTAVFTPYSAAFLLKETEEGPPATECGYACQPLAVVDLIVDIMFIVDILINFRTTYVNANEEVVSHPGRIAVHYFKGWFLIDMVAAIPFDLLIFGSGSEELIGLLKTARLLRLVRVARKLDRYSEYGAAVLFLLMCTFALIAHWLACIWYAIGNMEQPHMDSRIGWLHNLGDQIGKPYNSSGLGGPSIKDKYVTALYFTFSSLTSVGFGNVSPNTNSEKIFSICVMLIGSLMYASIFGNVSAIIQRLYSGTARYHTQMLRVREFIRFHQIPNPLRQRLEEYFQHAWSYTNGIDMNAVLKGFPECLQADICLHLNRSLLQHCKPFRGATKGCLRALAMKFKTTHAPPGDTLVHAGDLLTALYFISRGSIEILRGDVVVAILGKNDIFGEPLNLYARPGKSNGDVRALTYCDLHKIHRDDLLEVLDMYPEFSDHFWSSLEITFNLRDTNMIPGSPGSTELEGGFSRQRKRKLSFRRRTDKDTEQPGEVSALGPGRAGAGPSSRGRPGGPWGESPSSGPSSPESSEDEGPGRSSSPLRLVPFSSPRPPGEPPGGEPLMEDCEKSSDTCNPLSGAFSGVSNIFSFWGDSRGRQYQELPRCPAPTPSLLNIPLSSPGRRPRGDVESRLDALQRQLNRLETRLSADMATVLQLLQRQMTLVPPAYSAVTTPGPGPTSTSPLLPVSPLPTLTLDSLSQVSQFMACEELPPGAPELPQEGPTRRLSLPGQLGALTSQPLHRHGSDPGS

[6] = DRUGMATRIX: Glutamate, NMDA, Agonism radioligand binding (ligand: [3H] CGP-39653); type: cell membranes, Rattus norvegicus, Wistar, Cerebral cortex, Membrane; conditions: Not Active = under 50% inhibition at 10 µM
[7] = DRUGMATRIX: GABAA, Chloride Channel, TBOB radioligand binding (ligand: [3H] TBOB); type: cell membranes, Rattus norvegicus, Wistar, Cerebral cortex, Membrane; conditions: Not Active = under 50% inhibition at 10 µM
[8] = target: T2, Cytochrome P450 1A2 (Homo sapiens, UniProt P05177); conditions: bti-tn-5b1-4; note: in other assays of this panel Not Active means under 50% inhibition at 10 µM
T2 sequence (P05177 whole entry): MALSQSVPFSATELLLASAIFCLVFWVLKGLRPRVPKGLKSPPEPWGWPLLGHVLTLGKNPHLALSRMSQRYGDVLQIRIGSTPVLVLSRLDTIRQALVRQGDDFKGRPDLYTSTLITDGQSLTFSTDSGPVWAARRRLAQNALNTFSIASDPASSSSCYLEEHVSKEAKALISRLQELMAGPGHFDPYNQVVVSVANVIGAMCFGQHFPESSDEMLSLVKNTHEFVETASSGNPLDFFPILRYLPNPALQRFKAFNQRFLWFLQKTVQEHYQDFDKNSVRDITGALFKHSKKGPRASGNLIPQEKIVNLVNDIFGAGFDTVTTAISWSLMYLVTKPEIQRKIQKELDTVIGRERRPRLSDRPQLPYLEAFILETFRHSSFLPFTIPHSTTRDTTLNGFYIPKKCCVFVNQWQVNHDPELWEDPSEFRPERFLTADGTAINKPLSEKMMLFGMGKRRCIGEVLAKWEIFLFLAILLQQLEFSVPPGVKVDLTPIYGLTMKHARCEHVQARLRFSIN

C-C chemokine receptor type 5, sequence (P51681 whole entry): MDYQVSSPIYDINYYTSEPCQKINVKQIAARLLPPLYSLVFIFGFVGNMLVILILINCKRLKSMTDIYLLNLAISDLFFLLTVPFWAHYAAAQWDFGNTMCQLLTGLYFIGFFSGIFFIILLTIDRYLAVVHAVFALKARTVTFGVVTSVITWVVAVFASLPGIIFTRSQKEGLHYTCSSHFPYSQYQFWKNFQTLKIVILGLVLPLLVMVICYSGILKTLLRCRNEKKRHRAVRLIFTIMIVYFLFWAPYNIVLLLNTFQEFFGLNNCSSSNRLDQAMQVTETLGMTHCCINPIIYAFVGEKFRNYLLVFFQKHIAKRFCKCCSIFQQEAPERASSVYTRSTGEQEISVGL

Row | SMILES | IC50 [1] | IC50 [2] | IC50 [3] | IC50 ([4]; chem-1) | IC50 [5] | Ki [5] | IC50 [6] | Ki [6] | IC50 [7] | Ki [7] | IC50 [8] | Ki [8] | IC50 ([4]; read-out: IC50) [µM] | Ki ([4]; read-out: Ki) [µM] | Ki [1] | Ki [2] | Ki [3] | Ki ([4]; chem-1)
1 | CCN(CC)CCOC(=O)c1ccc(N)cc1 [PROCAINE] | Not Active | Not Active | Not Active | Not Active | Not Active | Not Active | Not Active | Not Active | Not Active | Not Active | Not Active | Not Active | – | – | – | – | – | –
2 | CCCC(CCC)C(=O)O [VALPROIC ACID] | Not Active | Not Active | Not Active | Not Active | Not Active | Not Active | Not Active | Not Active | Not Active | Not Active | Not Active | Not Active | – | – | – | – | – | –
3 | Cc1ccccc1C(=O)N1CCC(Cc2ccccc2)CC1 | Not Active | Not Active | Not Active | Not Active | Not Active | Not Active | Not Active | Not Active | Not Active | Not Active | Not Active | Not Active | – | – | – | – | – | –
4 | C[C@@H](O)[C@H](CO)NC(=O)[C@@H]1CSSC[C@H](NC(=O)[C@H](N)Cc2ccccc2)C(=O)N[C@@H](Cc2ccccc2)C(=O)N[C@H](Cc2c[nH]c3ccccc23)C(=O)N[C@@H](CCCCN)C(=O)N[C@@H]([C@@H](C)O)C(=O)N1 (H-[dF]CF[dW]KTC-{Threoninol(2S,3R)}; disulfide 2-7) | Not Active | Not Active | Not Active | Not Active | Not Active | Not Active | Not Active | Not Active | Not Active | Not Active | Not Active | Not Active | – | – | – | – | – | –
5 | Cc1nccn1CC1CCc2c(c3ccccc3n2C)C1=O (stereo unspecified) [ONDANSETRON] | Not Active | Not Active | Not Active | Not Active | Not Active | Not Active | Not Active | Not Active | Not Active | Not Active | Not Active | Not Active | – | – | – | – | – | –
6 | C#C[C@]1(O)CC[C@H]2[C@@H]3CCc4cc(OC)ccc4[C@H]3CC[C@@]21C [MESTRANOL] | Not Active | Not Active | Not Active | – | Not Active | Not Active | Not Active | Not Active | Not Active | Not Active | Not Active | Not Active | 28.5 | 22.5 | – | – | – | –
7 | COc1cc2c(c3oc(=O)c4c(c13)CCC4=O)[C@@H]1C=CO[C@@H]1O2 [AFLATOXIN] | Not Active | Not Active | Not Active | Not Active | Not Active | Not Active | Not Active | Not Active | Not Active | Not Active | Not Active | Not Active | – | – | Not Active | Not Active | Not Active | Not Active
8 | CC1(C)O[C@@H]2C[C@H]3[C@@H]4C[C@H](F)C5=CC(=O)CC[C@]5(C)[C@H]4[C@@H](O)C[C@]3(C)[C@]2(C(=O)CO)O1 [FLURANDRENOLIDE] | Not Active | Not Active | Not Active | Not Active | Not Active | Not Active | Not Active | Not Active | Not Active | Not Active | Not Active | Not Active | – | – | – | – | – | –
9 | CC1(C)O[C@@H]2C[C@H]3[C@@H]4C[C@H](F)C5=CC(=O)C=C[C@]5(C)[C@@]4(F)[C@@H](O)C[C@]3(C)[C@]2(C(=O)CO)O1 [FLUOCINOLONE ACETONIDE] | Not Active | Not Active | Not Active | Not Active | Not Active | Not Active | Not Active | Not Active | Not Active | Not Active | Not Active | Not Active | – | – | – | – | – | –
10 | CC(C(=O)O)c1cccc(C(=O)c2ccccc2)c1 (stereo unspecified) [KETOPROFEN] | Not Active | Not Active | Not Active | Not Active | Not Active | Not Active | Not Active | Not Active | Not Active | Not Active | Not Active | Not Active | – | – | – | – | – | –
11 | O=c1ccc2ccccc2o1 [COUMARIN] | Not Active | Not Active | Not Active | Not Active | Not Active | Not Active | Not Active | Not Active | Not Active | Not Active | Not Active | Not Active | – | – | – | – | – | –
12 | CN1C(=O)COc2c(C(=O)NC3CN4CCC3CC4)cc(Cl)cc21 (stereo unspecified) [AZASETRON] | Not Active | Not Active | Not Active | Not Active | Not Active | Not Active | Not Active | Not Active | Not Active | Not Active | Not Active | Not Active | – | – | – | – | – | –
13 | C[C@H]1C[C@H]2[C@@H]3CCC4=CC(=O)C=C[C@]4(C)[C@@]3(Cl)[C@@H](O)C[C@]2(C)[C@@]1(O)C(=O)CO [BECLOMETHASONE] | Not Active | Not Active | Not Active | Not Active | Not Active | Not Active | Not Active | Not Active | Not Active | Not Active | Not Active | Not Active | – | – | – | – | – | –
14 | Cc1cc(=O)n(-c2ccccc2)n1C [ANTIPYRINE] | Not Active | Not Active | Not Active | Not Active | Not Active | Not Active | Not Active | Not Active | Not Active | Not Active | Not Active | Not Active | – | – | – | – | – | –
15 | COc1cccc2c1C(=O)c1c(O)c3c(c(O)c1C2=O)C[C@@](O)(C(=O)CO)C[C@@H]3O[C@H]1C[C@H](N)[C@@H](O)[C@H](C)O1 [EPIRUBICIN] | Not Active | Not Active | Not Active | Not Active | Not Active | Not Active | Not Active | Not Active | Not Active | Not Active | Not Active | Not Active | – | – | – | – | – | –
16 | C[C@](O)(CS(=O)(=O)c1ccc(F)cc1)C(=O)Nc1ccc(C#N)c(C(F)(F)F)c1 [(R)-BICALUTAMIDE] | Not Active | Not Active | Not Active | Not Active | Not Active | Not Active | Not Active | Not Active | Not Active | Not Active | Not Active | Not Active | – | – | – | – | – | –
17 | COP(=O)(OC)OC=C(Cl)Cl [DICHLORVOS] | Not Active | Not Active | Not Active | Not Active | Not Active | Not Active | Not Active | Not Active | Not Active | Not Active | Not Active | Not Active | – | – | – | – | – | –
18 | CCN[C@@H]1C[C@H](N)[C@@H](O[C@H]2OC(CN)=CC[C@H]2N)[C@H](O)[C@H]1O[C@H]1OC[C@](C)(O)[C@H](NC)[C@H]1O [NETILMICIN] | Not Active | Not Active | Not Active | Not Active | Not Active | Not Active | Not Active | Not Active | Not Active | Not Active | Not Active | Not Active | – | – | – | – | – | –

— ChEMBL document CHEMBL1909046, “DrugMatrix in vitro pharmacology data”
